According to ChEMBL document CHEMBL1201862, “PubChem BioAssay data set” (2004):
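Results reflect a 48-hour exposure of cells in 96-well plates to compound at five concentrations. GI50 = concentration required for 50% inhibition of growth.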 The source made the active and inactive calls. No stated cut-off is given here; in the data, active = GI50 up to about 1.1 µM and inactive = higher.

What was measured:
Test in all cases: inhibition of tumour cell growth, NCI panel, 48 h
LOX IMVI = test system: LOX IMVI
PC-3 = test system: PC-3
BT-549 = test system: BT-549
HCT-116 = test system: HCT-116
OVCAR-4 = test system: OVCAR-4
A549 = test system: A549
DU-145 = test system: DU-145
SR = test system: SR
SNB-75 = test system: SNB-75
SNB-19 = test system: SNB-19
RPMI-8226 = test system: RPMI-8226
MCF7 = test system: MCF7
786-0 = test system: 786-0
OVCAR-3 = test system: OVCAR-3
MOLT-4 = test system: MOLT-4
NCI/ADR-RES = test system: NCI/ADR-RES
NCI-H226 = test system: NCI-H226
CAKI-1 = test system: CAKI-1
COLO 205 = test system: COLO 205
SN12C = test system: SN12C
SW-620 = test system: SW-620
U-251 = test system: U-251
HT-29 = test system: HT-29
CCRF-CEM = test system: CCRF-CEM
Malme-3M = test system: Malme-3M
NCI-H460 = test system: NCI-H460
SF-539 = test system: SF-539
NCI-H23 = test system: NCI-H23
TK-10 = test system: TK-10
HCC 2998 = test system: HCC 2998
K562 = test system: K562
Hs-578T = test system: Hs-578T
SK-MEL-5 = test system: SK-MEL-5
MDA-MB-435 = test system: MDA-MB-435
UO-31 = test system: UO-31
MDA-N = test system: MDA-N
UACC-257 = test system: UACC-257
M14 = test system: M14
IGROV-1 = test system: IGROV-1
SF-268 = test system: SF-268
ACHN = test system: ACHN
HOP-62 = test system: HOP-62
OVCAR-8 = test system: OVCAR-8
HCT-15 = test system: HCT-15
EKVX = test system: EKVX
RXF 393 = test system: RXF 393
MDA-MB-231 = test system: MDA-MB-231
NCI-H522 = test system: NCI-H522
HOP-92 = test system: HOP-92
A498 = test system: A498
SK-MEL-2 = test system: SK-MEL-2
SK-MEL-28 = test system: SK-MEL-28
OVCAR-5 = test system: OVCAR-5
SF-295 = test system: SF-295
KM12 = test system: KM12
UACC-62 = test system: UACC-62
HL-60 = test system: HL-60
SK-OV-3 = test system: SK-OV-3

For `COC(=O)CNC(=O)CNC(=O)CSc1nnc(COc2ccc(Cl)cc2)n1-c1ccccc1`, the GI50 (LOX IMVI) was 23.2 µM (inactive), the GI50 (PC-3) was 52.7 µM (inactive) and the GI50 (BT-549) was 24.4 µM (inactive). For the same molecule, the GI50 (HCT-116) was 38.7 µM (inactive), the GI50 (OVCAR-4) was > 100 µM (inactive) and the GI50 (A549) was > 100 µM (inactive). For the same molecule, the GI50 (DU-145) was > 100 µM (inactive), the GI50 (SR) was 29 µM (inactive) and the GI50 (SNB-75) was 25.4 µM (inactive). For the same molecule, the GI50 (SNB-19) was 86.3 µM (inactive), the GI50 (RPMI-8226) was 29.4 µM (inactive) and the GI50 (MCF7) was > 100 µM (inactive). For the same molecule, the GI50 (786-0) was > 100 µM (inactive), the GI50 (OVCAR-3) was 19.8 µM (inactive) and the GI50 (MOLT-4) was 36.6 µM (inactive). For the same molecule, the GI50 (NCI/ADR-RES) was > 100 µM (inactive), the GI50 (NCI-H226) was > 100 µM (inactive) and the GI50 (CAKI-1) was 17.6 µM (inactive). The GI50 (COLO 205) was > 100 µM (inactive), the GI50 (SN12C) was > 100 µM (inactive) and the GI50 (SW-620) was 68.1 µM (inactive). The GI50 (U-251) was 49.9 µM (inactive), the GI50 (HT-29) was > 100 µM (inactive) and the GI50 (CCRF-CEM) was 25.3 µM (inactive). For the same molecule, the GI50 (Malme-3M) was 18.7 µM (inactive), the GI50 (NCI-H460) was 62.8 µM (inactive) and the GI50 (SF-539) was > 100 µM (inactive). For the same molecule, the GI50 (NCI-H23) was > 100 µM (inactive), the GI50 (TK-10) was 44.5 µM (inactive) and the GI50 (HCC 2998) was 42 µM (inactive). The GI50 (K562) was 30.1 µM (inactive), the GI50 (Hs-578T) was 23.2 µM (inactive) and the GI50 (SK-MEL-5) was 22.4 µM (inactive). For the same molecule, the GI50 (MDA-MB-435) was 18.7 µM (inactive), the GI50 (UO-31) was 21.4 µM (inactive) and the GI50 (MDA-N) was 23.7 µM (inactive). The GI50 (UACC-257) was 19.1 µM (inactive), the GI50 (M14) was 37.4 µM (inactive) and the GI50 (IGROV-1) was 17.9 µM (inactive). The GI50 (SF-268) was 20.8 µM (inactive), the GI50 (ACHN) was > 100 µM (inactive) and the GI50 (HOP-62) was > 100 µM (inactive). The GI50 (OVCAR-8) was > 100 µM (inactive), the GI50 (HCT-15) was greater than 100 µM and the GI50 (EKVX) was > 100 µM (inactive). The GI50 (RXF 393) was 15.4 µM (inactive), the GI50 (MDA-MB-231) was 19.1 µM (inactive) and the GI50 (NCI-H522) was 5.46 µM (inactive). The GI50 (HOP-92) was 19.2 µM (inactive), the GI50 (A498) was > 100 µM (inactive) and the GI50 (SK-MEL-2) was 19.4 µM (inactive). For the same molecule, the GI50 (SK-MEL-28) was 25.1 µM (inactive), the GI50 (OVCAR-5) was > 100 µM (inactive) and the GI50 (SF-295) was > 100 µM (inactive). The GI50 (KM12) was 21.3 µM (inactive) and the GI50 (UACC-62) was 17.5 µM (inactive).

For `O=C(CCCN1CCC(Nc2ccccc2)(c2nnnn2C2CCCCC2)CC1)c1ccc(F)cc1`, the GI50 (LOX IMVI) was 3.81 µM (inactive), the GI50 (PC-3) was 3.94 µM (inactive) and the GI50 (BT-549) was 7.96 µM (inactive). For the same molecule, the GI50 (HCT-116) was 4.48 µM (inactive), the GI50 (OVCAR-4) was 6.34 µM (inactive) and the GI50 (A549) was 3.49 µM (inactive). For the same molecule, the GI50 (DU-145) was 3.81 µM (inactive), the GI50 (SR) was 6.67 µM (inactive) and the GI50 (SNB-75) was 10.2 µM (inactive). The GI50 (SNB-19) was 9.64 µM (inactive), the GI50 (RPMI-8226) was 3.48 µM (inactive) and the GI50 (MCF7) was 2.28 µM (inactive). For the same molecule, the GI50 (786-0) was 3.89 µM (inactive), the GI50 (OVCAR-3) was 9.27 µM (inactive) and the GI50 (MOLT-4) was 14 µM (inactive). The GI50 (NCI/ADR-RES) was 21 µM (inactive), the GI50 (NCI-H226) was 17.9 µM (inactive) and the GI50 (COLO 205) was 2.24 µM (inactive). The GI50 (SN12C) was 10.6 µM (inactive), the GI50 (SW-620) was 6.76 µM (inactive) and the GI50 (U-251) was 5.86 µM (inactive). For the same molecule, the GI50 (HT-29) was 3.03 µM (inactive), the GI50 (CCRF-CEM) was 16.4 µM (inactive) and the GI50 (Malme-3M) was 3.24 µM (inactive). For the same molecule, the GI50 (NCI-H460) was 8.65 µM (inactive), the GI50 (SF-539) was 2.25 µM (inactive) and the GI50 (NCI-H23) was 13.7 µM (inactive). The GI50 (TK-10) was 12.9 µM (inactive), the GI50 (HL-60) was 4.73 µM (inactive) and the GI50 (HCC 2998) was 3.29 µM (inactive). The GI50 (K562) was 13 µM (inactive), the GI50 (Hs-578T) was 10.3 µM (inactive) and the GI50 (SK-MEL-5) was 1.64 µM (inactive). For the same molecule, the GI50 (MDA-MB-435) was 6.62 µM (inactive), the GI50 (UO-31) was 3.78 µM (inactive) and the GI50 (MDA-N) was 5.28 µM (inactive). For the same molecule, the GI50 (SK-OV-3) was 13.3 µM (inactive), the GI50 (UACC-257) was 2.52 µM (inactive) and the GI50 (M14) was 1.99 µM (inactive). For the same molecule, the GI50 (IGROV-1) was 11.1 µM (inactive), the GI50 (SF-268) was 2.4 µM (inactive) and the GI50 (ACHN) was 4.58 µM (inactive). The GI50 (HOP-62) was 6.17 µM (inactive), the GI50 (OVCAR-8) was 13.1 µM (inactive) and the GI50 (HCT-15) was 8.28 µM. The GI50 (EKVX) was 3.3 µM (inactive), the GI50 (RXF 393) was 9.64 µM (inactive) and the GI50 (MDA-MB-231) was 8.65 µM (inactive). For the same molecule, the GI50 (NCI-H522) was 6.55 µM (inactive), the GI50 (A498) was > 10 µM (inactive) and the GI50 (SK-MEL-2) was 4.21 µM (inactive). For the same molecule, the GI50 (SK-MEL-28) was 3.79 µM (inactive), the GI50 (OVCAR-5) was 7.23 µM (inactive) and the GI50 (SF-295) was 14.5 µM (inactive). For the same molecule, the GI50 (KM12) was 8.47 µM (inactive) and the GI50 (UACC-62) was 11.7 µM (inactive).
